Measurements from the kinase profiling compilation of Christmann-Franck et al. (2016).

Experiments:
Assay in all cases: KINOMEscan competition binding
Settings in all cases: compound 2.0 µM
AURKB (human) = AURKB (human) (UniProt Q96GD4)
AXL (human) = AXL (human) (UniProt P30530)
BMPR1B (human) = BMPR1B (human) (UniProt O00238)
CDC2L2 (human) = CDC2L2 (human) (UniProt Q9UQ88)
CDC42BPG (human) = CDC42BPG (human) (UniProt Q6DT37)
CDK16 (human) = CDK16 (human) (UniProt Q00536)
CDK19 (human) = CDK19 (human) (UniProt Q9BWU1)
CDK5 (human) = CDK5 (human) (UniProt Q00535)
CDKL1 (human) = CDKL1 (human) (UniProt Q00532)
CDKL3 (human) = CDKL3 (human) (UniProt Q8IVW4)
CSNK1A1 (human) = CSNK1A1 (human) (UniProt P48729)
DAPK2 (human) = DAPK2 (human) (UniProt Q9UIK4)
[1] = test system: EGFR (human), P00533 [P753S; 747-752 del]
ERBB4 (human) = ERBB4 (human) (UniProt Q15303)
ERN1 (human) = ERN1 (human) (UniProt O75460)
[2] = test system: FLT3 (human), P36888 [ITD]
IRAK3 (human) = IRAK3 (human) (UniProt Q9Y616)
KDR (human) = KDR (human) (UniProt P35968)
MAP2K4 (human) = MAP2K4 (human) (UniProt P45985)
MAP3K12 (human) = MAP3K12 (human) (UniProt Q12852)
MAP3K4 (human) = MAP3K4 (human) (UniProt Q9Y6R4)
MAP4K3 (human) = MAP4K3 (human) (UniProt Q8IVH8)
MAP4K4 (human) = MAP4K4 (human) (UniProt O95819)
MAPK4 (human) = MAPK4 (human) (UniProt P31152)
MAPK7 (human) = MAPK7 (human) (UniProt Q13164)
MYLK (human) = MYLK (human) (UniProt Q15746)
PIM2 (human) = PIM2 (human) (UniProt Q9P1W9)
PRKACB (human) = PRKACB (human) (UniProt P22694)
PRKD3 (human) = PRKD3 (human) (UniProt O94806)
PRKG1 (human) = PRKG1 (human) (UniProt Q13976)
RIPK1 (human) = RIPK1 (human) (UniProt Q13546)
RIPK4 (human) = RIPK4 (human) (UniProt P57078)
RPS6KA1 KD1 (human) = RPS6KA1 KD1 (human) (UniProt Q15418)
RPS6KA6 KD1 (human) = RPS6KA6 KD1 (human) (UniProt Q9UK32)
SBK1 (human) = SBK1 (human) (UniProt Q52WX2)
SNRK (human) = SNRK (human) (UniProt Q9NRH2)
SRPK1 (human) = SRPK1 (human) (UniProt Q96SB4)
STK11 (human) = STK11 (human) (UniProt Q15831)
STK24 (human) = STK24 (human) (UniProt Q9Y6E0)
SYK (human) = SYK (human) (UniProt P43405)
TNNI3K (human) = TNNI3K (human) (UniProt Q59H18)
[3] = molecular target: TYK2 JH2 pseudokinase (human) (UniProt P29597)
ULK1 (human) = ULK1 (human) (UniProt O75385)

AXL (human), sequence (P30530 whole entry, looked up): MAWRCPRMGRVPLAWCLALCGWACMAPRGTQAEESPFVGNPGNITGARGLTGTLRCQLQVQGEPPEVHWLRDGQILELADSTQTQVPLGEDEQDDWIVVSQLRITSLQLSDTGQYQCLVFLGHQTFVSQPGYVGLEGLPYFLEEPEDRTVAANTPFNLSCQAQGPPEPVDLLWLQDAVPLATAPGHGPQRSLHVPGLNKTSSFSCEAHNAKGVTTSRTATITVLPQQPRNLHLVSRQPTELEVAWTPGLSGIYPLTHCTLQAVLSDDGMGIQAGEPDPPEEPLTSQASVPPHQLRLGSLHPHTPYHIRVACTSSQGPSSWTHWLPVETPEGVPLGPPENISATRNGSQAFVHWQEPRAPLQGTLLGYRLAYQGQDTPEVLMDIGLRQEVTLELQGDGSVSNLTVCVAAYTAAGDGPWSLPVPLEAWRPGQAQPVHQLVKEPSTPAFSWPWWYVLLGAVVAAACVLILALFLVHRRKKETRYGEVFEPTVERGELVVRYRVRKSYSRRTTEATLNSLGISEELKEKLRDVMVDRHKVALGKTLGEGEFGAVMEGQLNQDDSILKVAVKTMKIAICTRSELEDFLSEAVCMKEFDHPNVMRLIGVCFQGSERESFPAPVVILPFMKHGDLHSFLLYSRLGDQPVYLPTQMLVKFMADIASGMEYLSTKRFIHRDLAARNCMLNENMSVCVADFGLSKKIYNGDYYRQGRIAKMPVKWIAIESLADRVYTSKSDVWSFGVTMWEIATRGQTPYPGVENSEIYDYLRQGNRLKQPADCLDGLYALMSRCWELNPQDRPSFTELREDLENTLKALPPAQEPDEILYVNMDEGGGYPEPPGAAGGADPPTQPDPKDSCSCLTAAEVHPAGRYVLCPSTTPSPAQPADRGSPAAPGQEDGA
MAP3K4 (human), sequence (Q9Y6R4 whole entry, looked up): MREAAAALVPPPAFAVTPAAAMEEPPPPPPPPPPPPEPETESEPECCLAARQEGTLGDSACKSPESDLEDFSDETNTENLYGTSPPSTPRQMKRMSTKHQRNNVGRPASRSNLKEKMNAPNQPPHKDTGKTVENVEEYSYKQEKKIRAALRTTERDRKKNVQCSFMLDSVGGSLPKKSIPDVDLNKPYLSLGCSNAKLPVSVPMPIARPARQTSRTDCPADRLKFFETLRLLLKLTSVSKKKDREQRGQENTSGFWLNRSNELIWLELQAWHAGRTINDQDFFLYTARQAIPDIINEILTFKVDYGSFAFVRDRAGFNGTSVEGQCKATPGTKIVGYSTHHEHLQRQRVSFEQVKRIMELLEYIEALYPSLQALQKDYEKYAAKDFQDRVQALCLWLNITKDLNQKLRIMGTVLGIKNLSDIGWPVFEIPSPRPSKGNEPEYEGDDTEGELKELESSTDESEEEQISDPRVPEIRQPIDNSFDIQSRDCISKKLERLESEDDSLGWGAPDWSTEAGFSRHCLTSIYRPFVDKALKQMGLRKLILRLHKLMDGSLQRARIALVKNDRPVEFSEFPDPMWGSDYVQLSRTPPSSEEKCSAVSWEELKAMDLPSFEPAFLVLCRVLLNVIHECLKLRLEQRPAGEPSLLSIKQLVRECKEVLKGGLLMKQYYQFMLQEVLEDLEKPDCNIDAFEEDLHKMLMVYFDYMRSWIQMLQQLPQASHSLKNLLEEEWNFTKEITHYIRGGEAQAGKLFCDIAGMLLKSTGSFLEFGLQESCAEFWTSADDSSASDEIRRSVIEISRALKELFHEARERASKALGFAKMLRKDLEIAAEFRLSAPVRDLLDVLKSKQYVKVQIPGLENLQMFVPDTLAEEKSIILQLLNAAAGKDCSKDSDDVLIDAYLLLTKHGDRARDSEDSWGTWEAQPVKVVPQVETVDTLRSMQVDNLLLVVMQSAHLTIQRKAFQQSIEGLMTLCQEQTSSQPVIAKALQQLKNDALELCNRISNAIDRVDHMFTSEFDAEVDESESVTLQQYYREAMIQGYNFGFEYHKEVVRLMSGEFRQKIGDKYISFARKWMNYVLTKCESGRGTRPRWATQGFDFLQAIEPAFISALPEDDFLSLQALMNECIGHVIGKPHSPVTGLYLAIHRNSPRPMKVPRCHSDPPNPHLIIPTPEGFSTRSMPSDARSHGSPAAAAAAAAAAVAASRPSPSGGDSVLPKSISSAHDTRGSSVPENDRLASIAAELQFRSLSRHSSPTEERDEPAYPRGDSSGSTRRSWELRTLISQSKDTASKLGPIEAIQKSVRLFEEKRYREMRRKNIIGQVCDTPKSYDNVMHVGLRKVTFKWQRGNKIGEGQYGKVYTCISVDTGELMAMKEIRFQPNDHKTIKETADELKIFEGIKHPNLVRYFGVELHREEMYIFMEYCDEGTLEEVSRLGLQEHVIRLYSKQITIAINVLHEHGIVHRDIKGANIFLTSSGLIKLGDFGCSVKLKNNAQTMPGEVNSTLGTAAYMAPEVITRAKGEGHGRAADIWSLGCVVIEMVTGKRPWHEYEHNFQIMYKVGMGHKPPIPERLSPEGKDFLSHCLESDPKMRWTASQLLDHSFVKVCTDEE
IRAK3 (human), sequence (Q9Y616 whole entry, looked up): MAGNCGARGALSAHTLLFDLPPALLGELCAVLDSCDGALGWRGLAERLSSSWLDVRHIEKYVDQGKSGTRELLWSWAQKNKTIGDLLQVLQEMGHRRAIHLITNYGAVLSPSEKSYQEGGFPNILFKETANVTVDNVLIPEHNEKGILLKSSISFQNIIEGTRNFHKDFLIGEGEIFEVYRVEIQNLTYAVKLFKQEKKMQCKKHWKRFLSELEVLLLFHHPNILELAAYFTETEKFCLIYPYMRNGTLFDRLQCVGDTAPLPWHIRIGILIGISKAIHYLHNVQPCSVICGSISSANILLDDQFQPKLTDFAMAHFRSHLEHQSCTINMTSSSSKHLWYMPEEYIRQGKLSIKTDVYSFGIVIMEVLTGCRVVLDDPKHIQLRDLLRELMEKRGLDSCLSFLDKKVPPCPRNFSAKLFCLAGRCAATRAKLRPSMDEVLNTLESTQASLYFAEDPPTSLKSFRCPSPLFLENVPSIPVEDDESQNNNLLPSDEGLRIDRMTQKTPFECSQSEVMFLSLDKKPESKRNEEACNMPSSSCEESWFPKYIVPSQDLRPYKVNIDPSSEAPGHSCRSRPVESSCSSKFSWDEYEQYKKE
PRKG1 (human), sequence (Q13976 whole entry, looked up): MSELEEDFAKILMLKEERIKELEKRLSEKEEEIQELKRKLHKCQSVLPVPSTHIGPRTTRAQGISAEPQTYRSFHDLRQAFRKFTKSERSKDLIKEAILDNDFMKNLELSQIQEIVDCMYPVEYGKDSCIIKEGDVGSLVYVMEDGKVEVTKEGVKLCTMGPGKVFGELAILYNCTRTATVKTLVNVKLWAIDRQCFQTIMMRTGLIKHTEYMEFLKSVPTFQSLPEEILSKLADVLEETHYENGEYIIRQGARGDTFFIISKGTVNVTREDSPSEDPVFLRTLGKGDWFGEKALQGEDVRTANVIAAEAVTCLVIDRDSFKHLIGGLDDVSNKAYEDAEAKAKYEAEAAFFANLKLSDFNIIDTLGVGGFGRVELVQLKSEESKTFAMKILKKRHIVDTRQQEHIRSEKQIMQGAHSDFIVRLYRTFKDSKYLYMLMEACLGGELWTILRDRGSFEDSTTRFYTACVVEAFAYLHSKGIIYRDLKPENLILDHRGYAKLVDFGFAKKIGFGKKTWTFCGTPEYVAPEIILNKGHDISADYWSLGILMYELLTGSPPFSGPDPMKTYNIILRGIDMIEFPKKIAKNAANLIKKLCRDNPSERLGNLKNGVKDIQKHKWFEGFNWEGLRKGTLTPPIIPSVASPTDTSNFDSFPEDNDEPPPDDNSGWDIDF
MAP3K12 (human), sequence (Q12852 whole entry, looked up): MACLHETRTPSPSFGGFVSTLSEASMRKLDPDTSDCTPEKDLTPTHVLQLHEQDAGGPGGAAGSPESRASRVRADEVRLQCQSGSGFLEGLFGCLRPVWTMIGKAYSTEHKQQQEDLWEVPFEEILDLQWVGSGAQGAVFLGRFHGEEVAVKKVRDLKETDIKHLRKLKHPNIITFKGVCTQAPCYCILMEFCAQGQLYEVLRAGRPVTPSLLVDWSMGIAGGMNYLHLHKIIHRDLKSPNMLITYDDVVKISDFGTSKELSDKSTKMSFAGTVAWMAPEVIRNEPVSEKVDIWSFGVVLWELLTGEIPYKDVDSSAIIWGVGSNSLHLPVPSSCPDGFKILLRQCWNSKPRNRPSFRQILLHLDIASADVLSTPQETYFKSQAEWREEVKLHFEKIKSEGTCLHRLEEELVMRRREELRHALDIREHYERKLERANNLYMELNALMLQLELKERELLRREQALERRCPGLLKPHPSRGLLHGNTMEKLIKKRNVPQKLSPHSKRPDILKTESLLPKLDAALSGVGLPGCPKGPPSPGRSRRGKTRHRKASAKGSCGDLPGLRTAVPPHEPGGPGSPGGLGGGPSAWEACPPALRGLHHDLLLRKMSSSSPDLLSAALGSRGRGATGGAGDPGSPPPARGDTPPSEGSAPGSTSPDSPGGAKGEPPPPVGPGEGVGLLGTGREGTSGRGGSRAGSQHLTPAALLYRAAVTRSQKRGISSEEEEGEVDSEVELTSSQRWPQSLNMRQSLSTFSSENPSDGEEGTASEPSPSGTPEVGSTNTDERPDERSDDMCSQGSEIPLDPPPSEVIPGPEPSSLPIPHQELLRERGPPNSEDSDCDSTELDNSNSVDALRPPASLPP
AURKB (human), sequence (Q96GD4 whole entry, looked up): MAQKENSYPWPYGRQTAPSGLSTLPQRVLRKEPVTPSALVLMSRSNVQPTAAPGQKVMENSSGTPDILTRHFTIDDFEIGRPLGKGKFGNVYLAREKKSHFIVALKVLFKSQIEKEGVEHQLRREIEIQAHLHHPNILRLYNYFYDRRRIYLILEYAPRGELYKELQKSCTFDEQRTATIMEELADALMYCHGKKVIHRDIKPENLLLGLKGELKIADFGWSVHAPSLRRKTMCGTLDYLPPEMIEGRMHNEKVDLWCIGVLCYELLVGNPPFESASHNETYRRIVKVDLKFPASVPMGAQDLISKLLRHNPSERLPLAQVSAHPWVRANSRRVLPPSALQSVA

`N#Cc1ccc2ncnc(NCCc3ccc4ccccc4c3)c2c1` gave a kinase still bound, per cent of control (AURKB (human)) of 79%, a kinase still bound, per cent of control (AXL (human)) of 88% and a kinase still bound, per cent of control (BMPR1B (human)) of 90%. The kinase still bound, per cent of control (CDC2L2 (human)) was 100%, the kinase still bound, per cent of control (CDC42BPG (human)) was 92% and the kinase still bound, per cent of control (CDK16 (human)) was 100%. The kinase still bound, per cent of control (CDK19 (human)) was 0.8%, the kinase still bound, per cent of control (CDK5 (human)) was 100% and the kinase still bound, per cent of control (CDKL1 (human)) was 100%. For the same molecule, the kinase still bound, per cent of control (CDKL3 (human)) was 100%, the kinase still bound, per cent of control (CSNK1A1 (human)) was 87% and the kinase still bound, per cent of control (DAPK2 (human)) was 87%. It also gave a kinase still bound, per cent of control [1] of 89%, a kinase still bound, per cent of control (ERBB4 (human)) of 98% and a kinase still bound, per cent of control (ERN1 (human)) of 100%. It also gave a kinase still bound, per cent of control [2] of 87%, a kinase still bound, per cent of control (IRAK3 (human)) of 82% and a kinase still bound, per cent of control (KDR (human)) of 86%. The kinase still bound, per cent of control (MAP2K4 (human)) was 89%, the kinase still bound, per cent of control (MAP3K12 (human)) was 100% and the kinase still bound, per cent of control (MAP3K4 (human)) was 86%. It also gave a kinase still bound, per cent of control (MAP4K3 (human)) of 100%, a kinase still bound, per cent of control (MAP4K4 (human)) of 97% and a kinase still bound, per cent of control (MAPK4 (human)) of 87%. The kinase still bound, per cent of control (MAPK7 (human)) was 93%, the kinase still bound, per cent of control (MYLK (human)) was 100% and the kinase still bound, per cent of control (PIM2 (human)) was 89%. The kinase still bound, per cent of control (PRKACB (human)) was 100%, the kinase still bound, per cent of control (PRKD3 (human)) was 99% and the kinase still bound, per cent of control (PRKG1 (human)) was 85%. The kinase still bound, per cent of control (RIPK1 (human)) was 85%, the kinase still bound, per cent of control (RIPK4 (human)) was 100% and the kinase still bound, per cent of control (RPS6KA1 KD1 (human)) was 81%. The kinase still bound, per cent of control (RPS6KA6 KD1 (human)) was 100%, the kinase still bound, per cent of control (SBK1 (human)) was 100% and the kinase still bound, per cent of control (SNRK (human)) was 36%. It also gave a kinase still bound, per cent of control (SRPK1 (human)) of 100%, a kinase still bound, per cent of control (STK11 (human)) of 100% and a kinase still bound, per cent of control (STK24 (human)) of 92%. It also gave a kinase still bound, per cent of control (SYK (human)) of 100%, a kinase still bound, per cent of control (TNNI3K (human)) of 100% and a kinase still bound, per cent of control [3] of 92%. The kinase still bound, per cent of control (ULK1 (human)) was 100%.
